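Exposure lasted 48 hours, with cells grown in 96-well plates and compounds tested at five concentrations. GI50: concentration for 50% inhibition of growth.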 Activity calls are given as the source filed them. Cut-off read from the data, not from the text of the source: active = GI50 up to about 1.1 µM and inactive = higher.
Assays:
Assay in all cases: NCI tumour cell line growth inhibition, 48 h
SNB-19 = tested on: SNB-19
RPMI-8226 = tested on: RPMI-8226
MDA-MB-231 = tested on: MDA-MB-231
UACC-257 = tested on: UACC-257
MOLT-4 = tested on: MOLT-4
K562 = tested on: K562
IGROV-1 = tested on: IGROV-1
HOP-92 = tested on: HOP-92
NCI-H522 = tested on: NCI-H522
MDA-MB-435 = tested on: MDA-MB-435
MCF7 = tested on: MCF7
NCI/ADR-RES = tested on: NCI/ADR-RES
COLO 205 = tested on: COLO 205
KM12 = tested on: KM12
DU-145 = tested on: DU-145
HCT-116 = tested on: HCT-116
Hs-578T = tested on: Hs-578T
SK-OV-3 = tested on: SK-OV-3
NCI-H23 = tested on: NCI-H23
BT-549 = tested on: BT-549

Row | Structure (SMILES) | GI50 (SNB-19) | GI50 (RPMI-8226) | GI50 (MDA-MB-231) | GI50 (UACC-257) | GI50 (MOLT-4) | GI50 (K562) | GI50 (IGROV-1) | GI50 (HOP-92) | GI50 (NCI-H522) | GI50 (MDA-MB-435) | GI50 (MCF7) | GI50 (NCI/ADR-RES) | GI50 (COLO 205) | GI50 (KM12) | GI50 (DU-145) | GI50 (HCT-116) | GI50 (Hs-578T) | GI50 (SK-OV-3) | GI50 (NCI-H23) | GI50 (BT-549)
1 | Cc1cccc2c1c(=O)c1c(O)cc(O)cc1n2C | > 100 µM (inactive) | > 100 µM (inactive) | > 100 µM (inactive) | > 100 µM (inactive) | 70.5 µM (inactive) | 80.5 µM (inactive) | > 100 µM (inactive) | 92.9 µM (inactive) | 97.7 µM (inactive) | > 100 µM (inactive) | > 100 µM (inactive) | > 100 µM (inactive) | 30 µM (inactive) | > 100 µM (inactive) | > 100 µM (inactive) | 78.3 µM (inactive) | 33.8 µM (inactive) | 66.1 µM (inactive) | > 100 µM (inactive) | > 100 µM (inactive)
2 | CC12CCC(=O)C=C1CCC1C2C(O)CC2(C)C(c3csc(N)n3)CCC12.O=S(=O)(O)c1ccc(Br)cc1 (configuration not stated) | > 100 µM (inactive) | > 100 µM (inactive) | > 100 µM (inactive) | > 100 µM (inactive) | > 100 µM (inactive) | > 100 µM (inactive) | > 100 µM (inactive) | > 100 µM (inactive) | > 100 µM (inactive) | > 100 µM (inactive) | > 100 µM (inactive) | > 100 µM (inactive) | > 100 µM (inactive) | > 100 µM (inactive) | > 100 µM (inactive) | > 100 µM (inactive) | > 100 µM (inactive) | > 100 µM (inactive) | > 100 µM (inactive) | > 100 µM (inactive)
3 | COc1ccc(-c2cc(-c3ccc(Nc4ccnc5cc(C(F)(F)F)ccc45)cc3)[nH]c(=O)c2C#N)c2ccccc12 | 18.8 µM (inactive) | > 100 µM (inactive) | 17.7 µM (inactive) | > 100 µM (inactive) | > 100 µM (inactive) | > 100 µM (inactive) | > 100 µM (inactive) | > 100 µM (inactive) | > 100 µM (inactive) | > 33.7 µM (inactive) | > 29.5 µM (inactive) | > 100 µM (inactive) | > 37.7 µM (inactive) | > 30.4 µM (inactive) | > 43.8 µM (inactive) | 17.5 µM (inactive) | 35.7 µM (inactive) | 10.2 µM (inactive) | 39.5 µM (inactive) | > 58.5 µM (inactive)
4 | COC(=O)CN(CC1O[C@@H]2OC(C)(C)O[C@@H]2C1N=[N+]=[N-])C(=O)OCc1ccccc1 (some centres not stated) | > 100 µM (inactive) | > 100 µM (inactive) | > 100 µM (inactive) | > 100 µM (inactive) | 51.4 µM (inactive) | 57 µM (inactive) | > 100 µM (inactive) | > 100 µM (inactive) | > 100 µM (inactive) | > 100 µM (inactive) | > 100 µM (inactive) | 30.9 µM (inactive) | > 100 µM (inactive) | > 100 µM (inactive) | > 100 µM (inactive) | > 100 µM (inactive) | 16 µM (inactive) | > 100 µM (inactive) | – | > 100 µM (inactive)
5 | COn1cc(C=O)c2ccccc21 | 69.7 µM (inactive) | > 68.1 µM (inactive) | > 100 µM (inactive) | > 78.9 µM (inactive) | 33.2 µM (inactive) | 53.5 µM (inactive) | > 62.8 µM (inactive) | > 68.9 µM (inactive) | 38.6 µM (inactive) | 10.8 µM (inactive) | 45.2 µM (inactive) | > 70.8 µM (inactive) | > 100 µM (inactive) | 23.9 µM (inactive) | > 82 µM (inactive) | > 59 µM (inactive) | 37.4 µM (inactive) | 67 µM (inactive) | > 100 µM (inactive) | > 100 µM (inactive)
6 | O=C(NCP(=O)(c1ccccc1)c1ccccc1)OCc1ccccc1 | > 100 µM (inactive) | > 100 µM (inactive) | 60.1 µM (inactive) | – | > 100 µM (inactive) | > 100 µM (inactive) | > 100 µM (inactive) | 40 µM (inactive) | 39.4 µM (inactive) | > 100 µM (inactive) | > 100 µM (inactive) | 73.5 µM (inactive) | > 100 µM (inactive) | > 100 µM (inactive) | > 100 µM (inactive) | > 100 µM (inactive) | 43.6 µM (inactive) | 67.3 µM (inactive) | > 100 µM (inactive) | > 100 µM (inactive)
7 | Cc1c(C)c(S(=O)(=O)N(CCCCCON)OCCCN)c(C)c2c1OC(C)(C)CC2 | 15.5 µM (inactive) | 9.29 µM (inactive) | 15.7 µM (inactive) | 15.9 µM (inactive) | 4.94 µM (inactive) | 3.94 µM (inactive) | 10 µM (inactive) | 10.3 µM (inactive) | 17.7 µM (inactive) | 11.8 µM (inactive) | 8.18 µM (inactive) | 15.9 µM (inactive) | 3.48 µM (inactive) | 13.9 µM (inactive) | 0.883 µM (active) | 14.8 µM (inactive) | 19.3 µM (inactive) | 14.5 µM (inactive) | 15.6 µM (inactive) | 15.5 µM (inactive)
8 | NN=C(CC(O)(C(F)(F)Cl)C(F)(F)Cl)CC(O)(C(F)(F)Cl)C(F)(F)Cl | > 10 µM (inactive) | > 10 µM (inactive) | > 10 µM (inactive) | > 10 µM (inactive) | > 10 µM (inactive) | > 10 µM (inactive) | > 10 µM (inactive) | > 10 µM (inactive) | > 10 µM (inactive) | > 10 µM (inactive) | > 10 µM (inactive) | > 10 µM (inactive) | > 10 µM (inactive) | > 10 µM (inactive) | > 10 µM (inactive) | > 10 µM (inactive) | > 10 µM (inactive) | > 10 µM (inactive) | > 10 µM (inactive) | > 10 µM (inactive)
9 | CN(C(=O)[C@H](NC(=O)OCc1ccccc1)c1ccccc1)C1CCCCC1N1CCCC1 (some centres not stated) | > 100 µM (inactive) | 36.3 µM (inactive) | > 100 µM (inactive) | 26.1 µM (inactive) | 23.7 µM (inactive) | 29 µM (inactive) | 70.3 µM (inactive) | 31.5 µM (inactive) | 43.9 µM (inactive) | 70.8 µM (inactive) | 98.2 µM (inactive) | > 100 µM (inactive) | 87.9 µM (inactive) | > 100 µM (inactive) | > 100 µM (inactive) | 69.2 µM (inactive) | 19.6 µM (inactive) | > 100 µM (inactive) | > 100 µM (inactive) | > 100 µM (inactive)
10 | Cn1c2c(c3ccccc31)CC1c3c(c4ccccc4n3C)CC21 (configuration not stated) | > 100 µM (inactive) | > 100 µM (inactive) | > 100 µM (inactive) | > 100 µM (inactive) | > 100 µM (inactive) | > 100 µM (inactive) | > 100 µM (inactive) | > 100 µM (inactive) | > 100 µM (inactive) | > 100 µM (inactive) | > 100 µM (inactive) | > 100 µM (inactive) | > 100 µM (inactive) | > 100 µM (inactive) | > 100 µM (inactive) | – | > 100 µM (inactive) | > 100 µM (inactive) | > 100 µM (inactive) | > 100 µM (inactive)
11 | NCC(=O)Nc1ccc(S(=O)(=O)O)c2cc(S(=O)(=O)O)cc(S(=O)(=O)O)c12 | > 100 µM (inactive) | > 100 µM (inactive) | > 100 µM (inactive) | > 100 µM (inactive) | > 100 µM (inactive) | > 100 µM (inactive) | > 100 µM (inactive) | > 100 µM (inactive) | > 100 µM (inactive) | > 100 µM (inactive) | > 100 µM (inactive) | > 100 µM (inactive) | > 100 µM (inactive) | > 100 µM (inactive) | > 100 µM (inactive) | > 100 µM (inactive) | > 100 µM (inactive) | > 100 µM (inactive) | > 100 µM (inactive) | > 100 µM (inactive)
12 | O=S(=O)(O)c1cc(/N=N/c2cc(S(=O)(=O)O)c3cccnc3c2O)ccc1/C=C/c1ccc(/N=N/c2cc(S(=O)(=O)O)c3cccnc3c2O)cc1S(=O)(=O)O | > 100 µM (inactive) | > 97.7 µM (inactive) | > 100 µM (inactive) | > 100 µM (inactive) | 20.4 µM (inactive) | 34 µM (inactive) | > 100 µM (inactive) | > 72.4 µM (inactive) | > 100 µM (inactive) | > 100 µM (inactive) | > 100 µM (inactive) | > 100 µM (inactive) | > 100 µM (inactive) | > 100 µM (inactive) | > 100 µM (inactive) | > 89.1 µM (inactive) | > 100 µM (inactive) | > 100 µM (inactive) | > 100 µM (inactive) | > 100 µM (inactive)
13 | O=C1C2C3C=CC(C2C(=O)N1CN1CCOCC1)C1C2C(=O)N(CN4CCOCC4)C(=O)C2C31 (configuration not stated) | > 48 µM (inactive) | 34.6 µM (inactive) | > 100 µM (inactive) | > 49.3 µM (inactive) | 18.2 µM (inactive) | 25.8 µM (inactive) | > 56 µM (inactive) | > 62.1 µM (inactive) | > 40 µM (inactive) | > 100 µM (inactive) | > 100 µM (inactive) | > 100 µM (inactive) | > 43 µM (inactive) | > 44.7 µM (inactive) | > 100 µM (inactive) | > 44.9 µM (inactive) | > 100 µM (inactive) | > 71.4 µM (inactive) | > 47.9 µM (inactive) | > 100 µM (inactive)

From ChEMBL document CHEMBL1201862, “PubChem BioAssay data set” (2004)
